Blank lines part the entries; values can stand above or below the compound they belong to.
Experiments:
[1] = tested on: conscious male chinchilla rabbits; test: haemodynamic effects by telemetry in conscious rabbits; type: in vivo, rabbit; conditions: stand alone
Source text: In brief, telemetric implants (C50 PXT-DSI®) were used. Signals were received with RMC1-DSI® receiver plates, compiled and analyzied with PONEMAH® physiology platform software.

[2] = tested on: conscious male chinchilla rabbits; test: conscious rabbit ED model, low SNP dose (0.02 mg/kg i.v.), PDE5-resistant ED; type: in vivo
Experimental: (§1) The conscious rabbit ED model previously described (Bischoff and Schneider 2001) was used for the investigation of Erectile function. In brief: conscious male chinchilla rabbits (3-4 kg) were orally treated with the test compounds or with vehicle via gavage, followed by i.v. injection of the NO-donnor sodium nitro-prusside (SNP) in the ear vein, 90 minutes after oral applications. The SNP injections were done in a high dose setting (0.2 mg/kg SNP i.v) and a low dose setting (0.02 mg/kg SNP i.v.) corresponding to the general ED-population and the PDE5 non-responder ED-population, respectively. Penile length was quantified in 5 minutes intervals after injection of the SNP.

[3] = tested on: conscious male chinchilla rabbits; test: conscious rabbit ED model, high SNP dose (0.2 mg/kg i.v.), general ED population; type: in vivo; conditions: summary of Example 1; rabbits and rats; in the range of vardenafil
Experimental: as §1
The conscious rabbit ED model previously described (Bischoff and Schneider 2001) was used for the investigation of Erectile function as described in Example 1. The SNP injections were done in a high dose setting (0.2 mg/kg SNP i.v) corresponding to the general ED-population in which PDE5 inhibitors are fully active. Penile length was quantified in 5 minutes intervals after injection of the SNP.
The conscious rabbit ED model as described in Expample 1 and Example 6 was used for assessment of responderrates. […] Penile length was quantified in 5 minutes intervals after injection of the SNP. […]

[4] = phase I study #14441, pharmacokinetics of co-administration; type: in vivo, human; conditions: for half-life / Tmax: male, human, plasma, po; for Tmax: read-out: median tmax
Source text: The study was designed as a randomized, single-blind, placebo-controlled, group-comparison, dose-escalation study.

[5] = tested on: involved metabolic enzymes; conditions: stated as fact; cited from earlier work
[6] = previous studies; single administration of 2.0 mg BAY 60-4552; cited from earlier work
rabbits = conditions: intravenous and oral applications; cited from earlier work

dose proportionality of exposure ([4]; BAY 60-4552 1 mg to 2 mg in combination with vardenafil 2.5 mg to 20 mg): increased in proportion to the dose | exposure following concomitant administration versus each compound alone [4]: consistent with historical data | time linearity of pharmacokinetics ([4]; in vivo): time linear | half-life [4]: 13 to 14 h | Tmax [4]: 0.5 to 1 h
SMILES: COC(=O)Nc1c(N)nc(-c2nn(Cc3ccccc3F)c3ncccc23)nc1N [BAY 60-4552, methyl-4,6-diamino-2-[1-(2-fluorobenzyl)-1H-pyrazolo[3,4-b]pyridin-3-yl]-5-pyrimidinylcarbamate]
decrease in mean arterial blood pressure ([1]; 1 mg/kg p.o.): −5 mmHg | heart rate increase ([1]; 1 mg/kg p.o.): +24 bpm | decrease in blood pressure ([1]; 3 mg/kg): −11 mmHg | heart rate increase ([1]; 3 mg/kg): +51 bpm | decrease in blood pressure ([1]; 10 mg/kg): −22 mmHg | heart rate increase ([1]; 10 mg/kg): +103 bpm | penile erection (penile length) ([2]; low SNP 0.02 mg/kg i.v., 3 and 10 mg/kg p.o. stand alone): able to induce physiologically relevant erections | erections, stand alone treatment [3]: significant erections | inhibitor or inducer of the involved metabolic enzymes [5]: neither vardenafil nor BAY 60-4552 is an inhibitor or inducer | effect on heart rate and blood pressure [6]: no clinically relevant effect on heart rate and blood pressure

SMILES: COC(=O)N(C)c1c(N)nc(-c2nn(Cc3ccccc3F)c3ncccc23)nc1N [BAY 63-2521, methyl-4,6-diamino-2-[1-(2-fluorobenzyl)-1H-pyrazolo[3,4-b]pyridin-3-yl]-5-pyrimidinyl-(methyl)carbamate]
erections (rabbits): induced stable erections

SMILES: CCCc1nn(C)c2c(=O)[nH]c(-c3cc(S(=O)(=O)N4CCN(C)CC4)ccc3OCC)nc12 [Sildenafil, 3-[2-ethoxy-5-(4-methylpiperazin-1-yl)sulfonyl-phenyl]-7-methyl-9-propy 1-2,4,7,8-tetrazabicyclo[4.3.0]nona-3,8,10-trien-5-one, reference compound]
penile erection (penile length) ([2]; rabbit, in vivo): not able to produce any physiologically relevant erection

exposure following concomitant administration versus each compound alone [4]: consistent with historical data | half-life [4]: 3 to 5 h | Tmax [4]: 0.75 to 1 h | dose proportionality of AUC and Cmax ([4]; vardenafil 2.5 mg to 10 mg in combination with 1 mg or 2 mg BAY 60-4552): dose-proportional
SMILES: CCCc1nc(C)c2c(=O)[nH]c(-c3cc(S(=O)(=O)N4CCN(CC)CC4)ccc3OCC)nn12 [Vardenafil, 2-(2-Ethoxy-5-(4-ethylpiperazin-1-yl-1-sulfonyl)phenyl)-5-methyl-7-propyl-3H-imidazo (5,1-f) (1,2,4)triazin-4-one, reference compound]
decrease in mean arterial blood pressure ([1]; 1 mg/kg p.o.): −4 mmHg | heart rate increase ([1]; 1 mg/kg p.o.): +14 bpm | dose proportionality of exposure ([4]; 20 mg vardenafil level): slightly higher than proportional exposure

From patent US20140288079A1, “SGC STIMULATORS OF SGC ACTIVATORS IN COMBINATION WITH PDE5 INHBITORS FOR THE TREATMENT OF ERECTILE DYSFUNCTION” (BAYER PHARMA AKTIENGESELLSCHAFT, priority 2009, published 2014)
